According to US20180243297A1, “Amino pyrazine derivatives as phosphatidylinositol 3-kinase inhibitors” (Novartis AG, priority 2014, published 2018):
pIC50: −log10 of the molar value. Like-named read-outs stand apart in the source and are kept apart here. One block for each molecule: values may come before it.

What was measured:
[1] = molecular target: PI 3-kinase gamma (Homo sapiens, UniProt P48736); experiment: TR-FRET Adapta assay, assay E; type: biochemical
Method: (§1) TR-FRET Adapta Assay for PI 3-Kinase Gamma (E), PI 3-Kinase Delta (F)
(§2) The TR-FRET Adapta™ Universal Kinase Assay Kit was purchased from lnvitrogen Corporation (Carlsbad/CA, USA) (Cat. No. PV5099).
(§3) PIK3CD substrate phosphatidylinositol (PI) was obtained from lnvitrogen (vesicules consisting of 2 mM phosphatidylinositol (PI) in 50 mM HEPES pH7.5; Cat. No. PV5371). PIK3CG substrate phosphatidylinositol-4,5-bisphosphate (PIP(4,5)2 was obtained from lnvitrogen (PIP2:PS large unilamellar vesicules consisting of 1 mM PIP2: 19 mM PS in 50 mM HEPES pH7.5, 3 mM MgCl2, 1 mM EGTA; Cat. No. PV5100).
(§4) The Adapta™ assay can be divided into two phases: a kinase reaction phase and an ADP detection phase. In the kinase reaction phase, all kinase reaction components are added to the well and the reaction is allowed to incubate for a set period of time specific for each kinase. […] In the presence of an inhibitor, the amount of ADP formed by the kinase reaction is reduced, and the resulting intact antibodytracer interaction maintains a high TR-FRET signal.
(§5) 50 nL of compound dilutions were dispensed onto white 384-well small volume polystyrene plate. […]
(§6) Data are analyzed using Excel fit software or Graphpad Prism. IC50 values were derived by fitting a sigmoidal dose-response curve to a plot of assay readout over inhibitor concentration. […]

[2] = molecular target: PI 3-kinase delta (Homo sapiens, UniProt O00329); experiment: TR-FRET Adapta assay, assay F
Method: as §1, §2, §3, §4, §5, §6

[3] = molecular target: T1, PI 3-kinase gamma (U937 cells, MIP1α-stimulated AKT phosphorylation) (Homo sapiens, UniProt P48736); experiment: Cellular U937 AKT assay (HTRF), assay K2; type: cell-based; conditions: HTRF format, read-out: Assay K2 PI3Kγ IC50
T1 construct: endogenous in cells; host or cells: U937 human monocyte cell line
Method: (§7) In assays K1 and K2, the compounds were tested for their ability to inhibit the production of phosphorylated AKT (Protein Kinase B) generated in a PI 3-kinase gamma isoform-dependent process in a U937 human cell line.
Cellular U937 AKT Assay for PI 3-Kinase Gamma (K2)
U937 cells are split every 3-4 days: 5×10^6 cells/flask (175 cm^2) in 40 ml.
Semi-automated preparation of cell lysates: Cells were resuspended in HBSS, seeded (200′000 cells/well/60 μl) into a 384-well plate and incubated in a humidified 37° C., 5% CO2 incubator for 1.5 hours. The compounds were diluted with HBSS and 40 μl were added to the starved cells (except for wells 24 I-P). […] The cells were then incubated for 30 minutes at 37° C. and 5% CO2. Stimulation occurred during 3 minutes by addition of 20 μl MIP1α (final 10 ng/ml, diluted in HBSS) in the incubator. Wells 24 A-H were only stimulated with HBSS.
The stimulation was then stopped by putting the cell plates on ice (filled with cold water). The cells were then centrifuged at 1200 rpm and 4° C. for 3 minutes.
80 μl of supernatant was removed. The cells were again centrifuged at 1200 rpm and 4° C. for 3 minutes. The supernatant was then removed by turning plates upside down and 30 μl of lysis buffer were added. The plate was incubated at room temperature for 30 minutes under shaking. 16 μl were then transferred to a ProxiPlate Plus 384-well. […]

[4] = molecular target: PI 3-kinase alpha (Homo sapiens, UniProt P42336); experiment: Kinase Glo luminescent kinase assay (Kglo), assay A; type: biochemical; conditions: read-out: Assay A PI3Kα IC50
Method: (§8) Kinase Glo Luminescent Kinase Assay (Kglo) for Pb 3-Kinase Alpha (A), Pb 3-Kinase Beta (B), Vps34 (C), Pb 4-Kinase Beta (D)
(§9) The Kinase Glo Luminescent Kinase Assay (Promega, Madison/Wis., USA) is a homogeneous HTS method of measuring kinase activity by quantifying the amount of ATP remaining in solution following a kinase reaction.
(§10) L-α-phosphatidylinositol (PI), provided as 10 mg/ml solution in methanol, was transferred into a glass tube and dried under a nitrogen beam. It was then resuspended in 3% OctylGlucoside (1-0-n-octyl-beta-D-glucopyranoside) by vortexing and stored at 4° C. 5 μL of a mix of PI/OctylGlucoside with the PI 3-kinase alpha and PI 3-kinase beta subtypes, or Vps34 or PI 4-kinase beta were added. Kinase reactions were started by the addition of 5 μl of an ATP-mix containing in a final volume 10 μL 10 mM TRIS-HCl pH 7.5, 3 mM MgCl2, 50 mM NaCl, 0.05% CHAPS, 1 mM DTT and 1 μM ATP at room temperature.
(§11) All fits were performed with the program XLfit4 (ID Business Solutions, Guildford, UK).

[5] = molecular target: T1, PI 3-kinase gamma (U937 cells, MIP1α-stimulated AKT phosphorylation); experiment: Cellular U937 AKT assay (MSD), assay K1; type: cell-based; conditions: MSD format, read-out: Assay K1 PI3Kγ IC50
Method: as §7
Cellular U937 AKT Assay for PI 3-Kinase Gamma (K1)
Cells are incubated at 37° C., 5% CO2.
Before beginning the cell manipulations described below, the MSD (Meso Scale Discovery) assay plate is blocked by addition of 150 μl/well blocking buffer supplied and incubated with shaking for a minimum of one hour at room temperature. All steps of the assay must be performed quickly, with accurately timed incubation periods and observing temperature controls where indicated.
falcon tube, counted and centrifuged for eight minutes at 300 g at room temperature. Supernatant is aspirated, the cell pellet resuspended and washed once in HBSS (Hank's Balanced Salt Solution) by centrifugation for eight minutes at 300 g at room temperature. […] Assay plates are incubated for 1.5 hours at 37° C., 5% CO2 to allow background AKT phosphorylation to reduce before the compound stimulation step.
Compound titrations are prepared in a fresh flat-bottomed, 96-well plate, by 10-fold serial dilution of 40 μM into HBSS 0.8% DMSO; pipette tips are replaced after each dilution is made. Compound concentrations at this stage are 4-times the final concentration required in the assay plate. Cells are stimulated with compound or HBSS 0.8% DMSO by direct transfer of 50 μl/well from the compound dilution plate. The assay plate containing compound-treated cells is then incubated for 30 minutes at 37° C. A standard plate layout is used for all experiments.
Compound-treated cells, in addition to positive control wells (“max MIP1α”), are stimulated with 50 μL per well of 40 ng/ml MIP1α (R&D Systems catalogue number 270-LD, lyophilized stock reconstituted to 50 μg/ml with PBS 0.1% BSA). Negative control wells (“min HBSS”), are stimulated with 50 μl/well of HBSS in the absence of MIP1α. Final compound concentrations are now diluted 4-fold giving a top concentration of 10 μM; where added, the final concentration of MIP1α is 10 ng/ml. Cells are incubated with MIP1α for 3 minutes, at 37° C., 5% CO2. After the three minute stimulation period, the assay plate is kept ice cold at all times. Assay plates are centrifuged for 2 minutes at 300 g, 4° C. and supernatant is removed by gently inverting, and then blotting the plate on tissue. Cells are then washed by gentle addition of 150 μL/well of ice cold HBSS and centrifugation at 300 g, for 5 minutes at 4° C. Supernatant is
aspirated and the plate blotted as described above. […] Plates are incubated on ice for 20 minutes before centrifugation at 841 g for 5 minutes, 4° C.
Block buffer is aspirated from the MSD plate, and the plate washed four times with 300 μl/well Tris wash buffer. 25 μL of cell lysate is then transferred from the assay plate to the washed MSD plate which is sealed and incubated at room temperature for one hour with shaking. […] The plate is washed four times with 300 μl per well of Tris wash buffer and 150 μl per well of Read buffer is added, taking care to avoid the introduction of bubbles. The plate is immediately read using an MSD SECTOR Imager 6000. Results are exported in Excel and the percentage of phosphorylated AKT is calculated using the equation: % Phosphoprotein=((2*Phospho signal)/(Phospho signal+Total signal))*100. Compound-mediated inhibition of AKT phosphorylation is analysed using Prizm V Graphpad software.

[6] = system: IL-8-induced neutrophil shape change in human whole blood; experiment: Whole blood neutrophil shape change assay, assay L; type: cell-based; conditions: read-out: Assay L WBSC IC50
Method: Whole Blood Neutrophil Shape Change Assay (L)
IL-8 was made up to 2 μM stocks in 0.1% bovine serum albumin/PBS and stored at −80° C. On the day IL-8 was diluted in PBS (phosphate buffered saline) 10 minutes before use. IL-8 was used at final concentration of 2 nM and a concentration range from 0.003 to 200 nM for the donor dose response curve.
Assay fixative solution was prepared fresh each day from 10× concentrated CellFlX™ solution diluted 1:10 in sterile distilled water and then 1:4 with PBS. Assay fixative solution was kept on ice prior to use.
A 10× lysis buffer was prepared in advance by dissolving 20.75 g NH4Cl and 2.5 g KHCO3 in 250 ml sterile H2O. This 10× lysis buffer was filtered under sterile conditions and stored for up to two weeks at 4° C. On the day a 1× lysis solution was prepared with sterile distilled H2O and kept on ice prior to use.
The test compounds were prepared as 10 mM stock solutions in 100% DMSO and were stored at 4° C. Once in use for an assay 10 mM stock compounds were thawed and stored at RT protected from light. Compound dilutions were prepared fresh on the day. The first series of dilutions in 100% DMSO were done first thing in the morning. Only once blood had been collected and arrived in laboratory was the next set of dilutions into PBS carried out (1:10 PBS, 10% DMSO). This limited the exposure of diluted compound to plastic and made sure the exposure timing was consistent between assays.
Compound dilutions in 100% DMSO were prepared as described previously. Human whole blood was collected in K2 EDTA Vacutainers. Once blood was in the laboratory, compound dilutions into PBS were carried out as described previously and depicted in Table 1.
The outer wells of the deep well assay plate were filled with 1200 μl of sterile distilled H2O in an effort to limit edge effects (rows A1-H1, A1-A12, A12-H12).
An IL-8 dose response was determined for each blood donor examined, to monitor the donor response to IL-8. […] In addition the assay window without DMSO was also assessed each day. […]

[7] = molecular target: T2, PI 3-kinase delta (Rat-1_PI3Kdelta cells, Myr-HA-hp110 delta) (Homo sapiens, UniProt O00329); experiment: Cellular p-Akt (S473) assay, Surefire format, assay J1; type: cell-based; conditions: non-asterisked data: version J1 (Surefire format); read-out: Assay J PI3Kδ IC50
T2 construct: expressed in transfected cells
T2 sequence (O00329 1-1044): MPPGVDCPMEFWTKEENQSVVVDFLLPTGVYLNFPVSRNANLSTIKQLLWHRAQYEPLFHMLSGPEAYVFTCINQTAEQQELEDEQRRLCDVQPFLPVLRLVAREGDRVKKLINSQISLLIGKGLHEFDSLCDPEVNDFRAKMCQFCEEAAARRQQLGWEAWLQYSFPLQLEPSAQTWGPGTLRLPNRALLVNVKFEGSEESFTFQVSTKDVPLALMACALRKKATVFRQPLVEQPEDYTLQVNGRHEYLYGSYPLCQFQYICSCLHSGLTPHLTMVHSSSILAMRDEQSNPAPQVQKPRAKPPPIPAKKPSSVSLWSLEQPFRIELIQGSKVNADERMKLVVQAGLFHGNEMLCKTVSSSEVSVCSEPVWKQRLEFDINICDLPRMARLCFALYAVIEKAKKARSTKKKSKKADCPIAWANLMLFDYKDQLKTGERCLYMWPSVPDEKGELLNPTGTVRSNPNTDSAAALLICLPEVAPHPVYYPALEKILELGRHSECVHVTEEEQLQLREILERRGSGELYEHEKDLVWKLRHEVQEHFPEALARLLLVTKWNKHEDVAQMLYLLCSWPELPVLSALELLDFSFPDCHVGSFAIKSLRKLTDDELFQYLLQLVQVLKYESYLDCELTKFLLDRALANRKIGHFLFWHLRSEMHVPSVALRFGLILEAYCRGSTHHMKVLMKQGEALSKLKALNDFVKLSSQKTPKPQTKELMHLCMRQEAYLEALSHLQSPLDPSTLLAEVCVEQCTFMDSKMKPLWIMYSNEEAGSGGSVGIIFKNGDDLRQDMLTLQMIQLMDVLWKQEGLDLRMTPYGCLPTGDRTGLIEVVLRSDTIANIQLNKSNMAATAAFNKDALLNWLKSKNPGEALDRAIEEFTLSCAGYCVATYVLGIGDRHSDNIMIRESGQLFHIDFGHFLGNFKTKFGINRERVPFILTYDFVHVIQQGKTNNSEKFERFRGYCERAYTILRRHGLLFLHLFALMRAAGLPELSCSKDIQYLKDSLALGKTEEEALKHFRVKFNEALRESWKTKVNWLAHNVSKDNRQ
From the text: (§12) Cellular Assays for PI 3-Kinase Alpha (H1), Beta (I1) and Delta (J1): Surefire Format
(§13) AlphaScreen (Amplified Luminescent Proximity Homogeneous Assay, ALPHA, Perkin Elmer) is a non-radioactive bead-based proximity assay technology to study biomolecular interactions in a homogenous microtiter plate format. The brand name SureFire denotes AlphaScreen assays that are adapted to quantify the phosphorylation of endogenous cellular proteins in cell lysates, by using matched antibody pairs, which consist of an anti-phospho-kinase and an anti-kinase antibody. The assay allows characterization of kinase signaling in cells as well as measurement of kinase inhibitor effects.
(§14) Using Rat-1 cells stably expressing myr-HA-tagged versions of the human PI3Kdelta, PI3Kalpha, or PI3Kbeta p110 catalytic subunit isoforms, the assay was developed as a two-plate protocol in a 384-well format.
(§15) For compound testing, the cells were seeded at a density of 4000 (Rat-1_PI3Kdelta), 7500 (Rat-1_PI3Kalpha), or 6200 (Rat-1_PI3Kbeta) cells in 20 μl complete growth medium into cell culture treated 384-well plates and were grown at 37° C./5% CO2/90% humidity for 24 h. Shortly before compound transfer, the complete medium was removed, 30 μl assay buffer (DMEM high glucose, 1×MEM NEAA, 10 mM HEPES, 2 mM L-glutamine, 0.1% (w/v) BSA) was added and 10 μl of the compound predilutions were transferred to the cells.

[8] = molecular target: T3, PI 3-kinase alpha (Rat-1_PI3Kalpha cells, Myr-HA-hp110 alpha) (Homo sapiens, UniProt P42336); experiment: Cellular p-Akt (S473) assay, Surefire format, assay H1; type: cell-based; conditions: non-asterisked data: version H1 (Surefire format); read-out: Assay H PI3Kα IC50
T3 construct: expressed in transfected cells
From the text: as §12, §13, §14, §15

[9] = molecular target: T4, PI 3-kinase beta (Rat-1_PI3Kbeta cells, Myr-HA-hp110 beta) (Homo sapiens, UniProt P42338); experiment: Cellular p-Akt (S473) assay, Surefire format, assay I1; type: cell-based; conditions: non-asterisked data: version I1 (Surefire format); read-out: Assay I PI3Kβ IC50
T4 construct: expressed in transfected cells
Method: The assay allows characterization of kinase signaling in cells as well as measurement of kinase inhibitor effects.
as §14, §15, §11

[10] = Microsomal clearance assay, assay M; type: in vitro ADME; conditions: intrinsic clearance in rat liver microsomes
Method: The experiments were performed in 96-well glass plates at 37° C. on an automated Tecan EVO platform. Test compounds at a concentration of 10 mM in pure DMSO were diluted 1:1000 in water to 10 μM. […] Reactions were initiated by the addition of 150 μL of a cofactor solution containing 2 mM NADPH.

[11] = molecular target: Vps34 (Homo sapiens, UniProt Q8NEB9); experiment: Kinase Glo luminescent kinase assay (Kglo), assay C; type: biochemical
Method: as §8, §9, §10, §11

[12] = molecular target: mTOR (Homo sapiens, UniProt P42345); experiment: Lanthascreen kinase binding assay, assay G
Method: Lanthascreen™ Kinase Binding Assay for mTOR (G)
Binding of an inhibitor to the kinase competes for binding with the tracer, resulting in a loss of FRET.
50 nL of compound dilutions were dispensed onto white 384-well small volume polystyrene plate.

T1 sequence (P48736 whole entry): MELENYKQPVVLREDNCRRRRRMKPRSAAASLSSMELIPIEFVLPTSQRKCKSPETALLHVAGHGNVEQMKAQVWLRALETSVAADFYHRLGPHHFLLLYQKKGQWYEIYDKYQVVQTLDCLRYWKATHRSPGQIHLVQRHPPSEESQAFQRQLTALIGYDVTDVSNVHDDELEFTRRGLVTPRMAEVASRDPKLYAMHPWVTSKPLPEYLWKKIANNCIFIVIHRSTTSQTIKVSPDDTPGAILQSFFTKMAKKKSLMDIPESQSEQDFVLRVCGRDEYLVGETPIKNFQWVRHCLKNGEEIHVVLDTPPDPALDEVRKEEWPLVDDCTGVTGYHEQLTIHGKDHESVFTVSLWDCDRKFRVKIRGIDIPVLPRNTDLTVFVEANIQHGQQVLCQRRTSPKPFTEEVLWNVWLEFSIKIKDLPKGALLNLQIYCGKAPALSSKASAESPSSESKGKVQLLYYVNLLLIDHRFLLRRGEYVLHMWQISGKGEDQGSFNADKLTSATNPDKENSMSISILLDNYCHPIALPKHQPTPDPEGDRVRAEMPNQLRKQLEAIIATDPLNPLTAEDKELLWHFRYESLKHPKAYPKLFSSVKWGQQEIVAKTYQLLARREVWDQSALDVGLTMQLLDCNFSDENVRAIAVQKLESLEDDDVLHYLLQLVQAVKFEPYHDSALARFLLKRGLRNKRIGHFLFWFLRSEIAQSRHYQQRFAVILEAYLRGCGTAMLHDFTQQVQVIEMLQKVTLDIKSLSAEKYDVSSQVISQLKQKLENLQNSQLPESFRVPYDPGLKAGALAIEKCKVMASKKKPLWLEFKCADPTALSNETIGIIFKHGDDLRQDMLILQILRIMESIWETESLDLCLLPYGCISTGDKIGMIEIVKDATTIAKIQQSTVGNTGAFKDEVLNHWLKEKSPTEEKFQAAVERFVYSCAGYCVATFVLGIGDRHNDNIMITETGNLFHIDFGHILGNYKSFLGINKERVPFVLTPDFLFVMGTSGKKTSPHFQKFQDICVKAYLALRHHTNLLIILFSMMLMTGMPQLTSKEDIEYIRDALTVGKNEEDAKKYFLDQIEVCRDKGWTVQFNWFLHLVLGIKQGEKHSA
T3 sequence (P42336 whole entry): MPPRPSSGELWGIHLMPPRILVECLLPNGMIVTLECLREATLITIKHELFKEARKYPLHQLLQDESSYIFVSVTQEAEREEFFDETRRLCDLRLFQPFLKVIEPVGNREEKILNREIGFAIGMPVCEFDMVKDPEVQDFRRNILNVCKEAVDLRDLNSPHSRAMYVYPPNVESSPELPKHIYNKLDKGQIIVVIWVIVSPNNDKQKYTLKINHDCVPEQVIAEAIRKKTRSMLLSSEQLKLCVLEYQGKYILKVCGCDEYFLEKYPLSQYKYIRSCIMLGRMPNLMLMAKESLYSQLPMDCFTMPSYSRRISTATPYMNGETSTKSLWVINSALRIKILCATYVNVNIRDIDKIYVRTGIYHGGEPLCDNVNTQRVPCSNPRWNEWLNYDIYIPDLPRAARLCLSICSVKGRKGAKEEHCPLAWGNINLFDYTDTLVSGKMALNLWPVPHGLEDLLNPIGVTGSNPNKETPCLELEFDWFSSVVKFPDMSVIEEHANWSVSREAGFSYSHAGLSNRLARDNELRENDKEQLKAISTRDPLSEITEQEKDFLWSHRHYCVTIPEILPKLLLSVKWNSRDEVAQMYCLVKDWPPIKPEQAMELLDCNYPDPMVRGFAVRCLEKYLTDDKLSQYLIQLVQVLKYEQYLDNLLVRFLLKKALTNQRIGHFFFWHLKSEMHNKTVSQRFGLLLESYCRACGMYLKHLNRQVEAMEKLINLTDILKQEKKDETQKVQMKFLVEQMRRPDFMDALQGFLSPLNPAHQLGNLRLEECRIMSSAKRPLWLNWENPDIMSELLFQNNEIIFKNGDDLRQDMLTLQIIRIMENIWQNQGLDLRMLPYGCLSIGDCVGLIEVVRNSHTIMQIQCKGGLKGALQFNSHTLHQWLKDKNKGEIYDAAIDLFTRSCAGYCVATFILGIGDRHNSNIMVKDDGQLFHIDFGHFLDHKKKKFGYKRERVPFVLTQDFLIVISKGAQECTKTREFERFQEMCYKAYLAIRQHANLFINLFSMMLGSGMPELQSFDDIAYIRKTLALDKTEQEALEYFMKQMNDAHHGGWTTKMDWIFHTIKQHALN
T4 sequence (P42338 whole entry): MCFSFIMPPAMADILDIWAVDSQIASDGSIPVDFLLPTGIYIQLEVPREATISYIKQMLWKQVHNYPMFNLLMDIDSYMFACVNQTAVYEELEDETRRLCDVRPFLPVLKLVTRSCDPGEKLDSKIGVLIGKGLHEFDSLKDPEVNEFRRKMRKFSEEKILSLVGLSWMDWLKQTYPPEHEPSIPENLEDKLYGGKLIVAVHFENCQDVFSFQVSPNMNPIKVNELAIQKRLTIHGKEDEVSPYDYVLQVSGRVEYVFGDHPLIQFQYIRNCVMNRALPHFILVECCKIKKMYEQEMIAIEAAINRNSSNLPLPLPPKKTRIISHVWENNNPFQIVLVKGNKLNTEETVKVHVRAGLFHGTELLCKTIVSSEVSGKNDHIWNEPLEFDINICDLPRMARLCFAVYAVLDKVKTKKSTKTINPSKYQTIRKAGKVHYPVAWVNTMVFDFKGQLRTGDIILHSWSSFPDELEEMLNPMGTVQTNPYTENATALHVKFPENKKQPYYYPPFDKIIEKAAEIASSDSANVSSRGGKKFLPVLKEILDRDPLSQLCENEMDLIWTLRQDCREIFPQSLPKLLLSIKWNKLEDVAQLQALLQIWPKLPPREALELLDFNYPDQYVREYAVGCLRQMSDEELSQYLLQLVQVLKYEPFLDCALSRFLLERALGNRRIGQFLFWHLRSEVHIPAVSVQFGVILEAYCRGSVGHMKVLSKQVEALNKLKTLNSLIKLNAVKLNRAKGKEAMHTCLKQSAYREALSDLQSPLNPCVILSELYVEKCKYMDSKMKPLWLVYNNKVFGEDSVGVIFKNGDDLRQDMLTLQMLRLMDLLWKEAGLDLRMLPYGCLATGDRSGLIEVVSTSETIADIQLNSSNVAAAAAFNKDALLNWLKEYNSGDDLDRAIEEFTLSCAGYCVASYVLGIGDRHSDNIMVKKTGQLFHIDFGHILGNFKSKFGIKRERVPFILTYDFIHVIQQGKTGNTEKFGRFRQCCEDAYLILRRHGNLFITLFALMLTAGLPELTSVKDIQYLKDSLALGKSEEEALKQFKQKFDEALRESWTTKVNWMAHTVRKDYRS
Vps34, sequence (Q8NEB9 whole entry, species assumed): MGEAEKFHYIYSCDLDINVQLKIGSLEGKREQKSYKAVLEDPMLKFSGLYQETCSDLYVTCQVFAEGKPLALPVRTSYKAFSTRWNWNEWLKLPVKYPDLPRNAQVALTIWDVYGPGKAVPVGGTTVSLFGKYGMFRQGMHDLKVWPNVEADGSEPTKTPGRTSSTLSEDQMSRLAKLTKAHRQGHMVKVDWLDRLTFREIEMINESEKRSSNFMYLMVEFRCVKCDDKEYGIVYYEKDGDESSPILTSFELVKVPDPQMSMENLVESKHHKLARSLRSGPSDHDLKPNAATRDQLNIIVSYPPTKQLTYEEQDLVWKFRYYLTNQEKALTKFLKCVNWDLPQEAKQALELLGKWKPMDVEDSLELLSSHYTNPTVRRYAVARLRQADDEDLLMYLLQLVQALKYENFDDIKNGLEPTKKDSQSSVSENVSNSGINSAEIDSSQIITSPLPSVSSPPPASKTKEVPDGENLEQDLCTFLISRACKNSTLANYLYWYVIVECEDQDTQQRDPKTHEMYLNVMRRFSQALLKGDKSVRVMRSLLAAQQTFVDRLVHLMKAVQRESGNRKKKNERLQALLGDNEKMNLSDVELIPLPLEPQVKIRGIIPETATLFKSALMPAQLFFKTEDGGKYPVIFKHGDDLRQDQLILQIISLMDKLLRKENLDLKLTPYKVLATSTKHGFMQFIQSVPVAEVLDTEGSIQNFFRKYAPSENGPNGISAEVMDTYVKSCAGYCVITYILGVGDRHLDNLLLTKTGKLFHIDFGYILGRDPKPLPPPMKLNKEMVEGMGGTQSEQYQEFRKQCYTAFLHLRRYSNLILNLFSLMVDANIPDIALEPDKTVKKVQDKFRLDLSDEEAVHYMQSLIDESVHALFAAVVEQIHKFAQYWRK
PI 3-kinase gamma, sequence (P48736 whole entry): as the sequence (P48736 whole entry) above
PI 3-kinase alpha, sequence (P42336 whole entry): as the sequence (P42336 whole entry) above
PI 3-kinase alpha, sequence (P27986 461-568 partner limits assumed): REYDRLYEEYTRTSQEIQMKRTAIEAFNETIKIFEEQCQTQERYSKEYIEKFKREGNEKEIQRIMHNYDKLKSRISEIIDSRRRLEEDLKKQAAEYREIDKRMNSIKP
PI 3-kinase delta, sequence (P27986 461-568 partner limits assumed, one chain of several): as the sequence (P27986 461-568 partner limits assumed) above

Structure (SMILES): Cc1ccc(S(=O)(=O)NCC2COCCN2C)cc1-c1cnc(N)c(-c2cn(C)nc2C)n1 (single isomer, unassigned) [Example 128.3a, (R or S)-3-(5-Amino-6-(1,3-dimethyl-1H-pyrazol-4-yl)pyrazin-2-yl)-4-methyl-N-((4-methylmorpholin-3-yl)methyl)benzenesulfonamide]
pIC50 ([1]; TR-FRET Adapta assay, read-out: Assay E PI3Kγ IC50): 7.57 | pIC50 [2]: 6.24 | pIC50 [3]: 6.62 | pIC50 [4]: 6.64

Structure (SMILES): Cc1ccc(S(=O)(=O)NCCC(C)(C)O)cc1-c1cnc(N)c(-c2cccnc2OC(C)C)n1 [Reference example 119.12, 3-(5-amino-6-(2-isopropoxypyridin-3-yl)pyrazin-2-yl)-N-(3-hydroxy-3-methylbutyl)-4-methylbenzenesulfonamide]
activity in assay E (PI 3-kinase gamma) ([1]; result in words): not shown any activity

Structure (SMILES): Cc1nc(-c2nc(-c3cc(S(=O)(=O)NCCC(C)(C)O)ccc3C)cnc2N)cs1 [Example 119.30, 3-(5-amino-6-(2-methylthiazol-4-yl)pyrazin-2-yl)-N-(3-hydroxy-3-methylbutyl)-4-methylbenzenesulfonamide]
pIC50 [6]: 5.94 | pIC50 [7]: 6.20 | pIC50 [8]: 6.16 | pIC50 [9]: 5.16 | pIC50 [5]: 7.38 | Assay M RLM CI(int) [10]: 77 µL/min/mg

Structure (SMILES): Cc1ccc(S(=O)(=O)NCC(C)(C)O)cc1-c1cnc(N)c(-c2nn(C)nc2C)n1 [Example 19, 3-[5-Amino-6-(2,5-dimethyl-2H-[1,2,3]triazol-4-yl)-pyrazin-2-yl]-N-(2-hydroxy-2-methyl-propyl)-4-methyl-benzenesulfonamide]
pIC50 [11]: 5.03

Structure (SMILES): Cc1ccc(S(=O)(=O)NCCC(C)(C)O)cc1-c1cnc(N)c(-c2cncnc2)n1 [Example 119.20, 3-(5-amino-6-(pyrimidin-5-yl)pyrazin-2-yl)-N-(3-hydroxy-3-methylbutyl)-4-methylbenzenesulfonamide]
pIC50 [7]: 5.15 | pIC50 [8]: 5.31 | pIC50 [9]: 5.31

Structure (SMILES): Cc1cc(-c2nc(-c3cc(S(=O)(=O)NCC(C)(C)O)ccc3C)cnc2N)on1 [Example 88, 3-(5-Amino-6-(3-methylisoxazol-5-yl)pyrazin-2-yl)-N-(2-hydroxy-2-methylpropyl)-4-methylbenzenesulfonamide]
pIC50 [11]: 5.04 | pIC50 [12]: 5.04

Structure (SMILES): Cc1ncc(-c2nc(-c3cc(S(=O)(=O)NCCC(C)(C)O)ccc3C)cnc2N)o1 [Example 119.40, 3-(5-amino-6-(2-methyloxazol-5-yl)pyrazin-2-yl)-N-(3-hydroxy-3-methylbutyl)-4-methylbenzenesulfonamide]
pIC50 [7]: 5.98 | pIC50 [8]: 5.96 | pIC50 [9]: 5.09 | Assay M RLM CI(int) [10]: 56 µL/min/mg | pIC50 [3]: 7.33

Structure (SMILES): Cc1ncc(-c2nc(-c3cc(S(=O)(=O)NCC4(CO)CCOCC4)ccc3C)cnc2N)s1 [Example 45.9, 3-(5-Amino-6-(2-methylthiazol-5-yl)pyrazin-2-yl)-N-((4-(hydroxymethyl)tetrahydro-2H-pyran-4-yl)methyl)-4-methylbenzenesulfonamide]
pIC50 [11]: 5.03

Structure (SMILES): Cc1ccc(S(=O)(=O)NCCC(C)(C)O)cc1-c1cnc(N)c(-c2ccnc(F)c2)n1 [Example 119.10, 3-(5-amino-6-(2-fluoropyridin-4-yl)pyrazin-2-yl)-N-(3-hydroxy-3-methylbutyl)-4-methylbenzenesulfonamide]
pIC50 [7]: 5.98 | pIC50 [8]: 6.20 | pIC50 [9]: 5.59 | pIC50 [5]: 6.76

The remaining lines, values ahead:

pIC50 [5]: 6.39
Structure (SMILES): Cc1ccc(S(=O)(=O)NCC2CCC(C)(C)O2)cc1-c1cnc(N)c(-n2cncn2)n1 (stereo in doubt) [Example 127.40, (R)-3-(5-amino-6-(1H-1,2,4-triazol-1-yl)pyrazin-2-yl)-N-((5,5-dimethyltetrahydrofuran-2-yl)methyl)-4-methylbenzenesulfonamide]

pIC50 [5]: 6.07
Structure (SMILES): Cc1ccc(S(=O)(=O)N[C@@H]2CCOC2)cc1-c1cnc(N)c(-n2cncn2)n1 [Example 127.20, (R)-3-(5-amino-6-(1H-1,2,4-triazol-1-yl)pyrazin-2-yl)-4-methyl-N-(tetrahydrofuran-3-yl)benzenesulfonamide]

Assay M RLM CI(int) [10]: 20 µL/min/mg
Structure (SMILES): Cc1ccc(S(=O)(=O)N[C@@H]2CNC[C@H]2O)cc1-c1cnc(N)c(-n2cncn2)n1 [Example 127.60]

pIC50 [6]: 5.97 | pIC50 [5]: 6.75
Structure (SMILES): Cc1ccc(S(=O)(=O)NCC2(CO)CCOCC2)cc1-c1cnc(N)c(-n2cncn2)n1 [Example 127.50]

pIC50 [8]: 5.52
Structure (SMILES): Cc1cc(-c2nc(-c3cc(S(=O)(=O)NCCC(C)(O)C(F)(F)F)ccc3C)cnc2N)ccn1 (stereo not drawn) [Example 129.13]

pIC50 ([12]; Lanthascreen kinase binding assay): 5.04
Structure (SMILES): Cc1ccc(S(=O)(=O)NC[C@](C)(O)C(F)(F)F)cc1-c1cnc(N)c(-n2cncn2)n1 [Example 127.23, (S)-3-(5-amino-6-(1H-1,2,4-triazol-1-yl)pyrazin-2-yl)-4-methyl-N-(3,3,3-trifluoro-2-hydroxy-2-methylpropyl)benzenesulfonamide]

pIC50 [6]: 5.79 | Assay M RLM CI(int) [10]: 78 µL/min/mg
Structure (SMILES): Cc1cc(-c2nc(-c3cc(S(=O)(=O)NC4CCOCC4)ccc3C)cnc2N)ccn1 [Example 129.10]
